Measured values from patent publication US20110319392A1, “Thiazole Sulfonamide And Oxazole Sulfonamide Kinase Inhibitors” (priority 2009, published 2011).

Columns and labels:
B-Raf = B-Raf (Homo sapiens, UniProt P15056); test: B-Raf Accelerated MEK ATPase assay (BRAMA), Method A or B; format: biochemical; conditions: Method B: final MEK 150 nM, single end point read
Procedure, shortened: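 ADP production, initiated by catalytic activated Raf with unphosphorylated MEK, is followed by NADH oxidation through a PK/LDH coupled system. Method B differs from the kinetic Method A by a single end-point read and 150 nM final MEK.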

HT-29 tumor cells = test: Cell growth inhibition assay (CellTiter-Glo), HT-29; format: cell-based, Human; conditions: Homo sapiens
Procedure, shortened: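 Cells plated at 500 cells/well in their growth media, dosed next day with nine-step 1:3 compound dilutions (final DMSO 0.2%), then incubated 3 days at 37° C, 5% CO2. Total ATP read by CellTiter-Glo luminescence as a surrogate for cell number; IC50 interpolated from 4-parameter fit versus DMSO controls.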

B-Raf, sequence (P15056 whole entry): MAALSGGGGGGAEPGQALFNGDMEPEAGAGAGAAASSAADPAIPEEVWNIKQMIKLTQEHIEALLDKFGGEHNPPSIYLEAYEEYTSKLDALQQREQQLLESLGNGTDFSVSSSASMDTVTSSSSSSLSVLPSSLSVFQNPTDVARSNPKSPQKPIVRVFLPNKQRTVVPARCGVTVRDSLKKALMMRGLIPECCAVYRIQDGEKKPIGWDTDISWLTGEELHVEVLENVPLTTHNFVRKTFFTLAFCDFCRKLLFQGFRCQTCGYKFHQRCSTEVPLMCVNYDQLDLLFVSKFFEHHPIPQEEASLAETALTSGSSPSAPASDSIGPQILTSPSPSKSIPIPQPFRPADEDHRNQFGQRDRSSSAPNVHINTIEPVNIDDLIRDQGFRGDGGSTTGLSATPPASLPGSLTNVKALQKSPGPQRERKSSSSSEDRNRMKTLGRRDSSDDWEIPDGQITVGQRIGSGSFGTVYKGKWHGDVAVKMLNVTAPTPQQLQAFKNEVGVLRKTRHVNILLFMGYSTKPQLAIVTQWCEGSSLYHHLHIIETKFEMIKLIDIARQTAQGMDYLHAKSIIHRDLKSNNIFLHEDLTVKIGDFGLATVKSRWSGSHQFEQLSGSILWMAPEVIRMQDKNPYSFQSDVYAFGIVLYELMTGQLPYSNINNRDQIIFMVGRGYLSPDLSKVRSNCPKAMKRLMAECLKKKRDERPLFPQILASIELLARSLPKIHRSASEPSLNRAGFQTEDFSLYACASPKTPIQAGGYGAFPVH

IC50 (B-Raf): < 100 nM
IC50 (HT-29 tumor cells): < 100 nM
SMILES: CS(=O)(=O)CCN1CCN(c2ccc(Nc3nccc(-c4oc(N5CCCC5)nc4-c4cccc(NS(=O)(=O)c5c(F)cccc5F)c4F)n3)cc2F)CC1 [Example 167]
